{
  "source": "patent US20240100120A1",
  "about": "(priority 2019, published 2024)",
  "key": {"[1]": {"tested_on": "fentanyl OIRD (integrated phrenic nerve activity, iPNA)", "conditions": "rat, in vivo, iv"}, "[2]": {"tested_on": "side effects (e.g., respiratory depression) of opioid receptor agonists", "conditions": "oxytocin 0.32 mg/kg subcutaneously; heroin 0.1-1.0 mg/kg; rhesus monkeys"}, "[3]": {"tested_on": "opioid self-administration", "conditions": "Kovacs G L, et al. Life Sci. 1985; cited from earlier work"}, "[4]": {"tested_on": "integrated phrenic nerve activity (iPNA); opioid OIRD", "conditions": "rat, in vivo"}, "hypopnea and apnea": {"tested_on": "hypopnea and apnea", "conditions": "human sleep apnea patients; cited from earlier work"}},
  "note": "Where a SMILES comes first, the peptide text is derived from it. Bridges are numbered along the chain shown (N, C = ends). [ ]: non-standard residue; d: D form. Orn = NCCC[C@H](N)C(=O)O; Mpa = O=C(O)CCS",
  "data": [
    {"compound": "CCOc1ccc(C[C@H]2NC(=O)CCSSC[C@@H](C(=O)N3CCC[C@H]3C(=O)N[C@@H](CCCN)C(=O)NCC(N)=O)NC(=O)[C@H](CC(N)=O)NC(=O)[C@H]([C@@H](C)O)NC(=O)[C@H]([C@@H](C)CC)NC2=O)cc1", "note": "[atosiban] ([Mpa][dY](Et)ITNCP[Orn]G-NH2; disulfide 1-6)", "values": [
      {"measurement": "effect of OXTN receptor antagonism on OXTN reversal of FENT OIRD", "setting": "[1]", "result": "prevents OXTN (5 μg/kg) reversal of FENT OIRD"}
    ]},
    {"compound": "(Phenylacl-D-Tyr(Et)2,Lys6,Arg8,des-Gly9)-vasopressin trifluoroacetate [V1aRX]", "values": [
      {"measurement": "effect of V1aR antagonism on OXTN reversal of OIRD", "setting": "[1]", "result": "significantly enhances reversal"},
      {"measurement": "effect of V1aR antagonism on high dose OXTN reversal of OIRD", "setting": "[1]", "result": "efficacy is restored"}
    ]},
    {"compound": "CC[C@H](C)[C@@H]1NC(=O)[C@H](Cc2ccc(O)cc2)NC(=O)[C@@H](N)CSSC[C@@H](C(=O)N2CCC[C@H]2C(=O)N[C@@H](CC(C)C)C(=O)NCC(N)=O)NC(=O)[C@H](CC(N)=O)NC(=O)[C@H](CCC(N)=O)NC1=O", "note": "[oxytocin]", "values": [
      {"measurement": "reversal of side effects (e.g., respiratory depression) of opioid receptor agonists", "setting": "[2]", "result": "reversed"},
      {"measurement": "opioid self-administration", "setting": "[3]", "result": "reduces opioid self-administration"},
      {"measurement": "reduction of OIRD by OXT delivered into the PVN", "setting": "[4]", "result": "does not reduce OIRD"},
      {"measurement": "frequency of hypopnea, apnea and hypopnea duration and related arousal", "setting": "hypopnea and apnea", "result": "improved"}
    ]}
  ]
}
